Source: BindingDB's records for PubMed 37567057 (Institute of Organic Chemistry and Biochemistry of the …)

Legend:
[1] = biological target: T1, Stimulator of interferon genes protein (Homo sapiens, UniProt Q86WV6); test: Agonist activity at STING G230A/R293Q mutant (unknown origin) expressed in digitonin -permeabilized HEK293T cells preincubated for 30 mins followed by washout and measured after 5 hrs by Bright-glo luciferase assay
[2] = biological target: T1, Stimulator of interferon genes protein; test: Agonist activity at STING R71H/G230A/R293Q mutant (unknown origin) expressed in digitonin -permeabilized HEK293T cells preincubated for 30 mins followed by washout and measured after 5 hrs by Bright-glo luciferase assay

T1 sequence (Q86WV6 whole entry): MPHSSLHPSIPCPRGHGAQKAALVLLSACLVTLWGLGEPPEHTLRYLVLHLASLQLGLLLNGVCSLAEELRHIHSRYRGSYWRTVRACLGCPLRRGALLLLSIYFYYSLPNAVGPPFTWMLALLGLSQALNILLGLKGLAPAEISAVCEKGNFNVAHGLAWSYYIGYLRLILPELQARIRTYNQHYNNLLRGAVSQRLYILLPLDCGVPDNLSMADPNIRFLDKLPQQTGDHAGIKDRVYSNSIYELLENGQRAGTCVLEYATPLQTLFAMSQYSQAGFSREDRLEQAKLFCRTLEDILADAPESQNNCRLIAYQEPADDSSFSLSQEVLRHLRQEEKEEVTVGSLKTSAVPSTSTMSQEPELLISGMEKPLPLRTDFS

Nc1ncnc2c1ncn2[C@@H]1O[C@@H]2C=CP(=O)(O)O[C@H]3[C@@H](F)[C@H](n4cnc5c(N)ncnc54)O[C@@H]3COP(=O)(O)O[C@H]2[C@H]1F
EC50 [1]: 0.1 µM
EC50 [2]: 0.1 µM
